The source of these data is patent US20240050576A1, “METHODS AND COMPOUNDS FOR THE TREATMENT OF GENETIC DISEASE” (Design Therapeutics, Inc., priority 2020, published 2024).

Read-outs that look alike come from different tables or passages of the source. Where only a bound is given, the exact number is not on record here.

In this test the test system is human FXN. Briefly: FXN mRNA expression by qRT-PCR in GM15850 cells after 48 hr compound treatment. Format: cell-based. Particulars: GM15850 cells, 48 hr incubation, hFXN normalized to hGAPDH, read-out: EC50 WT (nM, 48 hr). On the procedure:
Cell culture: Cells were cultured in RPMI1640 medium+15% FBS. Cells were maintained at a density between 2e5/mL and 1e6/mL. Cells were centrifuged, resuspended in fresh medium, counted and plated at 150,000 cells per well in 100 uL in a non-coated, flat bottom tissue culture plate.
Compound treatment: 10 mM stock solution of FA GeneTAC was diluted 1:10 in DMSO followed by a 1:100 dilution in growth medium. […] Compound was then diluted at a 1:3 ratio into growth medium containing 0.01% DMSO. 5-point, 3-fold dose response curve was generated. 11 μL of 10× compound was added to wells containing 100 μL cell suspension of GM15850. 11 μL growth medium containing 0.01% DMSO was added to all wells not treated with FA GeneTAC. Cells were allowed to incubate for 48 hrs prior to cell lysis using guanidine isothiocyanate solution.
RNA isolation: Total RNA was isolated and purified in 384-well column filter plates using chaotropic salt.
qRT-PCR: qRT-PCR reactions were assembled using AgPath-ID reagents (Thermo Fisher) using 6 uL mastermix and 4 μL RNA. qRT-PCR TaqMan primer probe sets against human FXN (Assay ID Hs01075496_m1) and human GAPDH (Assay ID Hs00266705_g1) were used to measure the intended targets. qRT-PCR was run on the ThermoFisher QuantStudio 6 PRO instrument using the manufacturer's recommended cycling conditions.
Data analysis: qPCR data was analyzed using Thermo Fisher Design and Analysis software. Data was exported to Excel and hFXN expression was normalized to hGAPDH expression.
For orientation: Quantitative PCR measures a nucleic acid by following its amplification.

Broadly, the EC50 is the concentration needed to bring the measured effect to its halfway point. In the case of `COc1ccc2c(c1)C(c1ccc(Cl)cc1)=N[C@@H](CC(=O)Nc1ccc(OCCOCCOCCOCCOCCOCCC(=O)NCCCN(C)CCCNC(=O)CCNC(=O)c3nc(NC(=O)CCNC(=O)c4cc(NC(=O)c5nc(NC(=O)CCNC(=O)c6cc(NC(=O)c7nccn7C)cn6C)cn5C)cn4C)cn3C)cc1)c1nnc(C)n1-2` [Compound 6], for the setting “Homo sapiens”, the EC50 is 100 to 500 nM. As for `Cc1sc2c(c1C)C(c1ccc(Cl)cc1)=N[C@@H](CC(=O)Nc1ccc(OCCOCCOCCOCC(=O)N3CCN(CCOCCOCCOCCNC(=O)CCNC(=O)c4nc(NC(=O)CCNC(=O)c5cc(NC(=O)c6nc(NC(=O)CCNC(=O)c7cc(NC(=O)c8nccn8C)cn7C)cn6C)cn5C)cn4C)CC3)cc1)c1nnc(C)n1-2` [Compound 39], under “Homo sapiens”, the EC50 is less than 100 nM.

Turning to `Cc1sc2c(c1C)C(c1ccc(Cl)cc1)=N[C@@H](CC(=O)Nc1ccc(CCCOCCOCCOCCOCCOCCC(=O)NCCCN(C)CCCNC(=O)CCNC(=O)c3nc(NC(=O)CCNC(=O)c4cc(NC(=O)c5nc(NC(=O)CCNC(=O)c6cc(NC(=O)c7nccn7C)cn6C)cn5C)cn4C)cn3C)cc1)c1nnc(C)n1-2` [Compound 60], for the setting “Homo sapiens”, the EC50 lay in the range of 100 to 500 nM. Still for that read-out and setting: the value for `COC[C@@H](C)n1c(C2CCN(CCOCCOCCOCCOCCOCCC(=O)NCCCN(C)CCCNC(=O)CCNC(=O)c3nc(NC(=O)CCNC(=O)c4cc(NC(=O)c5nc(NC(=O)CCNC(=O)c6cc(NC(=O)c7nccn7C)cn6C)cn5C)cn4C)cn3C)CC2)nc2cnc3cc(-c4c(C)noc4C)c(OC)cc3c21` [Compound 10] was 100 to 500 nM; that for `Cc1sc2c(c1C)C(c1ccc(Cl)cc1)=N[C@@H](CC(=O)Nc1ccc(OCCOCCOCCOCCOCCOCCOCCOCCNC(=O)CCNC(=O)c3nc(NC(=O)CCNC(=O)c4cc(NC(=O)c5nc(NC(=O)CCNC(=O)c6cc(NC(=O)c7nccn7C)cn6C)cn5C)cn4C)cn3C)cc1)c1nnc(C)n1-2` [Compound 23] was 100 to 500 nM. On to `CCCNC(=O)c1nc(NC(=O)CCNC(=O)c2cc(NC(=O)c3nc(NC(=O)CCNC(=O)c4cc(NC(=O)c5nc(NC(=O)CCNC(=O)COCCOCCOCCOCCOCCOCCOCCOc6ccc(NC(=O)C[C@@H]7N=C(c8ccc(Cl)cc8)c8c(sc(C)c8C)-n8c(C)nnc87)cc6)cn5C)cn4C)cn3C)cn2C)cn1C` [Compound 51], for which the EC50 (Homo sapiens) was less than 100 nM. Still for that read-out and setting: the value for `CC(=O)N1c2ccc(C3=CCN(C(=O)COCCOCCOCCOCCOCCOCCOCCNC(=O)CCNC(=O)c4nc(NC(=O)CCNC(=O)c5cc(NC(=O)c6nc(NC(=O)CCNC(=O)c7cc(NC(=O)c8nccn8C)cn7C)cn6C)cn5C)cn4C)CC3)cc2N(Cc2ccccc2CO)C[C@@H]1C1CC1` [Compound 45] was 100 to 500 nM. `CCCNC(=O)CCNC(=O)c1nc(NC(=O)CCNC(=O)c2cc(NC(=O)c3nc(NC(=O)CCNC(=O)c4cc(NC(=O)c5nc(NC(=O)COCCOCCOCCOCCOCCOCCOCCOc6ccc(NC(=O)C[C@@H]7N=C(c8ccc(Cl)cc8)c8c(sc(C)c8C)-n8c(C)nnc87)cc6)cn5C)cn4C)cn3C)cn2C)cn1C` [Compound 49]: the EC50 (Homo sapiens) is less than 100 nM.

On to `COC[C@@H](C)n1c(C2CCN(C(=O)COCCOCCOCCOCCOCCC(=O)NCCCN(C)CCCNC(=O)CCNC(=O)c3nc(NC(=O)CCNC(=O)c4cc(NC(=O)c5nc(NC(=O)CCNC(=O)c6cc(NC(=O)c7nccn7C)cn6C)cn5C)cn4C)cn3C)CC2)nc2cnc3cc(-c4c(C)noc4C)c(OC)cc3c21` [Compound 20], for which, where the note is “Homo sapiens”, the EC50 is 100 to 500 nM. Consider `CC(=O)N1c2ccc(-c3ccc(C(=O)NCCOCCOCCOCCOCCOCCOCCOCCOCCNC(=O)c4nc(NC(=O)CCNC(=O)c5cc(NC(=O)c6nc(NC(=O)CCNC(=O)c7cc(NC(=O)c8nc(NC(=O)CCNC(=O)[C@H](CCCNC(=N)N)NC(=O)[C@@H](N)CCCNC(=N)N)cn8C)cn7C)cn6C)cn5C)cn4C)cc3)cc2[C@H](Nc2ccc(Cl)cc2)C[C@@H]1C` [Compound 90], for which the EC50 lay within 100 to 500 nM.

In the case of `CCCNC(=O)c1nc(NC(=O)CCNC(=O)c2cc(NC(=O)c3nc(NC(=O)CCNC(=O)c4cc(NC(=O)c5nc(NC(=O)CCNC(=O)COCCOCCOCCOCCOCCOCCOCCOCCOc6ccc(NC(=O)C[C@@H]7N=C(c8ccc(Cl)cc8)c8c(sc(C)c8C)-n8c(C)nnc87)cc6)cn5C)cn4C)cn3C)cn2C)cn1C` [Compound 52], for the setting “Homo sapiens”, the EC50 was less than 100 nM. On the same count and under the same terms, the value for `Cc1sc2c(c1C)C(c1ccc(Cl)cc1)=N[C@@H](CC(=O)Nc1ccc(OCCOCCOCCOCCOCCOCCNC(=O)CCNC(=O)c3nc(NC(=O)CCNC(=O)c4cc(NC(=O)c5nc(NC(=O)CCNC(=O)c6cc(NC(=O)c7nccn7C)cn6C)cn5C)cn4C)cn3C)cc1)c1nnc(C)n1-2` [Compound 21] was 100 to 500 nM.

As to `CC(=O)N1c2ccc(C3=CCN(C(=O)COCCOCCOCCOCCOCCC(=O)NCCCN(C)CCCNC(=O)CCNC(=O)c4nc(NC(=O)CCNC(=O)c5cc(NC(=O)c6nc(NC(=O)CCNC(=O)c7cc(NC(=O)c8nccn8C)cn7C)cn6C)cn5C)cn4C)CC3)cc2N(Cc2ccccc2CO)C[C@@H]1C1CC1` [Compound 29], the EC50 was in the range of 100 to 500 nM. Consider `Cc1sc2c(c1C)C(c1ccc(Cl)cc1)=N[C@@H](CC(=O)Nc1ccc(OCCOCCOCCOCCOCCOCCOCCNC(=O)CCNC(=O)c3nc(NC(=O)CCNC(=O)c4cc(NC(=O)c5nc(NC(=O)CCNC(=O)c6cc(NC(=O)c7nccn7C)cn6C)cn5C)cn4C)cn3C)cc1)c1nnc(C)n1-2` [Compound 22], for which the EC50 (Homo sapiens) lay in the range of 100 to 500 nM.

For `Cc1sc2c(c1C)C(c1ccc(Cl)cc1)=N[C@@H](CC(=O)Nc1ccc(OCCOCCOCCOCCOCCOCCC(=O)NCCCOCCCNC(=O)CCNC(=O)c3nc(NC(=O)CCNC(=O)c4cc(NC(=O)c5nc(NC(=O)CCNC(=O)c6cc(NC(=O)c7nccn7C)cn6C)cn5C)cn4C)cn3C)cc1)c1nnc(C)n1-2` [Compound 58], under “Homo sapiens”, the EC50 was less than 100 nM.

On to `Cc1sc2c(c1C)C(c1ccc(Cl)cc1)=N[C@@H](CC(=O)Nc1ccc(OCCOCCOCCOCCN3CCN(CCOCCOCCOCCNC(=O)CCNC(=O)c4nc(NC(=O)CCNC(=O)c5cc(NC(=O)c6nc(NC(=O)CCNC(=O)c7cc(NC(=O)c8nccn8C)cn7C)cn6C)cn5C)cn4C)CC3)cc1)c1nnc(C)n1-2` [Compound 40], for which, where the note is “Homo sapiens”, the EC50 was less than 100 nM. Same read-out and setting: then `CC(=O)N1c2ccc(-c3ccc(C(=O)NCCOCCOCCOCCOCCOCCOCCOCCOCCNC(=O)CCNC(=O)c4nc(NC(=O)CCNC(=O)c5cc(NC(=O)c6nc(NC(=O)CCNC(=O)c7cc(NC(=O)c8nccn8C)cn7C)cn6C)cn5C)cn4C)cc3)cc2[C@H](Nc2ccc(Cl)cc2)C[C@@H]1C` [Compound 36], with less than 100 nM.
